Experimental data published in ChEMBL document CHEMBL1201862, “PubChem BioAssay data set” (2004).
Activity calls are given as the source filed them.

How the values were obtained:
[1] = molecular target: T1, Corticotropin-releasing factor receptor 2/Corticotropin-releasing factor-binding protein (Homo sapiens, UniProt P24387+Q13324); experiment: activators of CRF receptor 2 with binding protein – uHTS hits, confirmation (AID 602473); assay type: functional; conditions: read-out: EC50_Mean
T1 sequence (Q13324 whole entry): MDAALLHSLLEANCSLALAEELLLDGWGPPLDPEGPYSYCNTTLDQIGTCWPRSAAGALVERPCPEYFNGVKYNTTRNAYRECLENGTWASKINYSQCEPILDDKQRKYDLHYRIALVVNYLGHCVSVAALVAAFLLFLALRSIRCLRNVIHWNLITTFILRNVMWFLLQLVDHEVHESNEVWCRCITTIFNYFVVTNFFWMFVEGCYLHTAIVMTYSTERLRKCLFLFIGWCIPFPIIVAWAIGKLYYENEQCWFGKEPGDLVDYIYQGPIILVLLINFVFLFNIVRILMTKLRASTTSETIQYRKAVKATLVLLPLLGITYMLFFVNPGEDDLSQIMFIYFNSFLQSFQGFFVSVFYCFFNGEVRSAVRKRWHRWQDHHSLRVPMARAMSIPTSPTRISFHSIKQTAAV
T1 sequence (P24387 whole entry): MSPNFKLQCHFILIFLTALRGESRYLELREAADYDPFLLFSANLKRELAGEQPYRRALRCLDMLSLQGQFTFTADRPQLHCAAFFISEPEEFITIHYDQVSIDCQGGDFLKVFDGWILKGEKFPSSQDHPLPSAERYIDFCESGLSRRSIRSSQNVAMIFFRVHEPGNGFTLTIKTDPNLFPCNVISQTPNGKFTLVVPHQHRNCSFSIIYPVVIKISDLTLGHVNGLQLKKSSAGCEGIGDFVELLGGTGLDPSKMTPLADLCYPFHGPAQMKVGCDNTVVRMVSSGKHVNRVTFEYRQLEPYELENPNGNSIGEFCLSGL

[2] = molecular target: T2, RNA-binding protein pos-1 (Caenorhabditis elegans, UniProt G5EF15); experiment: disruptors of C. elegans POS-1 RNA interaction – biochemical, fluorescence polarization, dose response (AID 1964);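 further: purified POS-1 fused to maltose binding protein made in E. coli; potency of compounds blocking POS-1 binding to fluorescent RNA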
T2 sequence (G5EF15 whole entry): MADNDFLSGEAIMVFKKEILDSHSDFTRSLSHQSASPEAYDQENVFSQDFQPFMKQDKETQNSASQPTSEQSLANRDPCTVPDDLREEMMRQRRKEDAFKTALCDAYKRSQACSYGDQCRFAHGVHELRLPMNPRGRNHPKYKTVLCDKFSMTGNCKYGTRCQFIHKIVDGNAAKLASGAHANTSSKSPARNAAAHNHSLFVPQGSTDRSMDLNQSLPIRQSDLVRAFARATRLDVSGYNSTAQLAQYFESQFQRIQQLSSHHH

[3] = molecular target: T3, Zinc finger protein mex-5 (Caenorhabditis elegans, UniProt Q9XUB2); experiment: potency of MEX-5 RNA-binding blockers – biochemical, C. elegans, fluorescence polarization, dose response (AID 1960)
T3 sequence (Q9XUB2 whole entry): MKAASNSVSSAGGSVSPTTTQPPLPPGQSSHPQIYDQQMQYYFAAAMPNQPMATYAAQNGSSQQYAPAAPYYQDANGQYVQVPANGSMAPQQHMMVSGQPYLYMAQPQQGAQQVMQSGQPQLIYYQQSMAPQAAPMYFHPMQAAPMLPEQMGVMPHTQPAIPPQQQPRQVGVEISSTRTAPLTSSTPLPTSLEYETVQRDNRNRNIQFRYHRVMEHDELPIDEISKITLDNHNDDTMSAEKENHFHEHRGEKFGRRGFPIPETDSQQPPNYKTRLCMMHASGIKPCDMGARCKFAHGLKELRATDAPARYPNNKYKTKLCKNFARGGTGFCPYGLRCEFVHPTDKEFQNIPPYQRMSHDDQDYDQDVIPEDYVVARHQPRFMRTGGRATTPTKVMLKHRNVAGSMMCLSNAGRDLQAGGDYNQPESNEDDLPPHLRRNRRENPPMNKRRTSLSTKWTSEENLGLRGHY

Large T antigen = Large T antigen (Simian virus 40, UniProt P03070); assay type: functional, Betapolyomavirus macacae;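 further: Confirmatory-stage PubChem screen for compounds that inhibit SV40 T antigen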
Sequence of Large T antigen (P03070 whole entry): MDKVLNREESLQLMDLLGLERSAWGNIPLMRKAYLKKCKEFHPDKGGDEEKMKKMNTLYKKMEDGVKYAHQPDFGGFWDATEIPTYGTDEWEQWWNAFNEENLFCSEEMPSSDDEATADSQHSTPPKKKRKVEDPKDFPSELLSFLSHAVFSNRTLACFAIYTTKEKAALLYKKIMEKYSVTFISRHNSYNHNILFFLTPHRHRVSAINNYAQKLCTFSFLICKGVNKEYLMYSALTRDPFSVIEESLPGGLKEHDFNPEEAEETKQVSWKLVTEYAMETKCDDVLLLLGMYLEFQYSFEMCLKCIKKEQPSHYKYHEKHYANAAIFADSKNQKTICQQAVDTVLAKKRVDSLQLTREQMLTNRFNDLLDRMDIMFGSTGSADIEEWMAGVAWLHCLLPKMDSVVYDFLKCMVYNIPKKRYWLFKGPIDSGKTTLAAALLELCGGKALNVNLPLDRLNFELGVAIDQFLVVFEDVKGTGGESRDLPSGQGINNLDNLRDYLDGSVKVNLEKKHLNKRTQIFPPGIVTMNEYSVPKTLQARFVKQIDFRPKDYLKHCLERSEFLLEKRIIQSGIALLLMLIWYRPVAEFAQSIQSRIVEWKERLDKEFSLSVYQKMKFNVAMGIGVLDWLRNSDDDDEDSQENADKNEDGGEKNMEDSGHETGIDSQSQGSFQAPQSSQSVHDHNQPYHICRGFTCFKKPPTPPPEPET

Paired box protein Pax-8 = Paired box protein Pax-8 (Homo sapiens, UniProt Q06710); experiment: PAX8 transcriptional activity inhibition in RMG-I – RMG-I cells, luciferase, cherry-pick, dose response (AID 687027); assay type: functional, cell-based;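 further: luciferase reporter driven by Pax8 target thyroperoxidase promoter measured by SteadyGlo luminescence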
Sequence of Paired box protein Pax-8 (Q06710 whole entry, the tested form may be a part): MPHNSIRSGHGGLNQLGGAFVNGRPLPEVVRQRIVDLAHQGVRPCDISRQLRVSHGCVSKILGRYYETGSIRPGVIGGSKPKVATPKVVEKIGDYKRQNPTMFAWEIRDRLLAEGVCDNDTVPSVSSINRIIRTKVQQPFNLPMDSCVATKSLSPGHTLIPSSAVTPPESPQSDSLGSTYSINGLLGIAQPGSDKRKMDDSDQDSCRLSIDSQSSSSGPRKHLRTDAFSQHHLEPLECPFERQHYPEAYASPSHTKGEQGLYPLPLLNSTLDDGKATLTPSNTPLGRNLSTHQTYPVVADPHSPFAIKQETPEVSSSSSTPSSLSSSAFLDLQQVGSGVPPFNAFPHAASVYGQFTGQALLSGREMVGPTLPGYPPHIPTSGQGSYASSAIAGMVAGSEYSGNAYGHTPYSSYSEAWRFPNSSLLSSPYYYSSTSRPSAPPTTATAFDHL

[4] = molecular target: T4, Carboxy-terminal domain RNA polymerase II polypeptide A small phosphatase 1 (Homo sapiens, UniProt Q9GZU7); experiment: CTDSP1 inhibitors, concentration-response, biochemical, absorbance readout, ultra-high-throughput screen actives (AID 540297); assay type: functional
T4 sequence (Q9GZU7 whole entry): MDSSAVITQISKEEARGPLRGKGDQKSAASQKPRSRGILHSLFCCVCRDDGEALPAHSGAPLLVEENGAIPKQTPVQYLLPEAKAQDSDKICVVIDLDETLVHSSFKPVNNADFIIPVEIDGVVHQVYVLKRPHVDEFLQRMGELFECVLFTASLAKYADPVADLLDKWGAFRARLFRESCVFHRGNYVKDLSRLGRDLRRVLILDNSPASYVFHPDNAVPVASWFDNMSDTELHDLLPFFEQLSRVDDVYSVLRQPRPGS

[5] = molecular target: Heat shock protein HSP 90-alpha (Homo sapiens, UniProt P07900); assay type: functional, organism-based
Vero = experiment: cells; assay type: functional; conditions: Chlorocebus sabaeus
[6] = Trypanosoma cruzi growth suppression in host cells – NIH3T3 host cells, beta-gal luminescence, confirmation (AID 2044); assay type: functional, cell-based;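 further: intracellular parasites grown in NIH/3T3 mouse fibroblasts as host cells; luminescent beta-galactosidase reporter signal from transgenic T. cruzi replicating inside host cells; inhibitors lower the luminescence signal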
[7] = molecular target: Luciferin 4-monooxygenase (Photinus pyralis, UniProt P08659); experiment: inhibition of purified Photinus pyralis luciferase – biochemical, luminescence, dose response (AID 1891)
Sequence of Luciferin 4-monooxygenase (P08659 whole entry): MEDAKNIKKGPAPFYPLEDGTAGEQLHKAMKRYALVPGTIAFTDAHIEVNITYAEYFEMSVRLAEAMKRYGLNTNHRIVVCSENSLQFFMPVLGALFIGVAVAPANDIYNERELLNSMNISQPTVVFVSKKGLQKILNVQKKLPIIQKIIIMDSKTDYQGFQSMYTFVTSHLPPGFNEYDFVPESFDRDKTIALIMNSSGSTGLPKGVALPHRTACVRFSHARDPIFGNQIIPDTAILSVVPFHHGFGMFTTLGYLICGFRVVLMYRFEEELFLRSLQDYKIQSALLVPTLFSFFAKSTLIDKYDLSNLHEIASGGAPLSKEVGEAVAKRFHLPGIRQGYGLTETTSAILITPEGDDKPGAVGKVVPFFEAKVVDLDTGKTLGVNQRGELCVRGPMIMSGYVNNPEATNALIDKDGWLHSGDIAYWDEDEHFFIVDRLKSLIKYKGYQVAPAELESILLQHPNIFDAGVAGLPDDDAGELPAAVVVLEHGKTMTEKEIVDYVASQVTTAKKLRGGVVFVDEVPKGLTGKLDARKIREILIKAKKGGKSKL

[8] = Luminescence Cell-Based Dose Confirmation HTS to Identify Inhibitors of Platelet Dense Granule Release. [Related pubchem assays: 1663 (Primary HTS), 1678 (Summary of Project)]; assay type: functional
[9] = NIH3T3 cell viability loss – ATP luminescence, mouse fibroblasts, counter-screen, dose response (AID 2010); assay type: functional, cell-based;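 further: cells exposed to compound for about 90 hours before reading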
[10] = molecular target: FAD-linked sulfhydryl oxidase ALR (Homo sapiens, UniProt P55789); experiment: ALR-catalysed DTT oxidation blockers – biochemical, H2O2 detection, luminescence, cherry-pick, dose response (AID 493248)
Sequence of FAD-linked sulfhydryl oxidase ALR (P55789 whole entry): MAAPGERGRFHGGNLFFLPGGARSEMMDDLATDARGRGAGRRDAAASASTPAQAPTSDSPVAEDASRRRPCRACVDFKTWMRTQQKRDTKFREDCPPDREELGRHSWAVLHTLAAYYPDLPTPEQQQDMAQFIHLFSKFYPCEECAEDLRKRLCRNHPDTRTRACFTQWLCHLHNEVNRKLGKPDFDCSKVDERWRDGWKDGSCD

With `O=C(NCCOC(=O)C1COc2ccccc2O1)c1cccnc1` (centres undefined) the EC50 [1] was > 53 µM (inactive).
With `NC(=O)c1c(NC(=O)c2c(F)cccc2F)sc2c1CCN(Cc1ccccc1)C2` the EC50 [2] was 57.1 µM (active) and the EC50 [3] was > 300 µM (not active).
For `CC(=O)Oc1cc(O)c2c(=O)c(OC(C)=O)c(-c3ccc(OC(C)=O)c(OC(C)=O)c3)oc2c1`, the IC50 (Large T antigen) was 14.4 µM (active).
In the case of `COc1cc(/C=C2\SC(NS(=O)(=O)c3ccc(C)cc3)=NC2=O)c([N+](=O)[O-])cc1OC`, the IC50 (Large T antigen) is reported as 41.3 µM (active).
For `C[C@@H]1CCCCO[C@H](CN(C)Cc2ccc(C(F)(F)F)cc2)[C@H](C)CN([C@H](C)CO)C(=O)c2cc(NS(=O)(=O)c3ccc(F)cc3)ccc2O1`, the AC50 (Paired box protein Pax-8) was 6.71 µM (active).
With `Cc1c(N/C=C2\C(=O)NC(=O)N(Cc3ccccc3)C2=O)c(=O)n(-c2ccccc2)n1C` the EC50 [2] was > 300 µM (not active) and the EC50 [3] was > 300 µM (not active).
For `O=C(COc1ccc2oc(-c3ccccc3)cc(=O)c2c1)NCc1ccco1`, the IC50 [4] was 9.63 µM (active).
With `CN(C)c1ccc(NS(=O)(=O)c2cc3c4c(c2)CC(=O)N4CCC3)cc1` the IC50 (Large T antigen) was 69.8 µM (active).
In the case of `COc1ccccc1NC(=O)c1nn(-c2ccc(Cl)cc2)ccc1=O`, the IC50 [4] is reported as 9.88 µM (active).
For `C[C@H]1CCCCO[C@@H](CN(C)C)[C@@H](C)CN([C@@H](C)CO)C(=O)c2cc(NC(=O)Nc3ccc(C(F)(F)F)cc3)ccc2O1`, the AC50 (Paired box protein Pax-8) was 22.1 µM (active).
In the case of `CC(=O)c1c(C(C)=O)c(C)n(-c2ccc(C(=O)O)cc2)c1C`, the EC50 [2] is reported as > 300 µM (not active) and the EC50 [3] is reported as > 300 µM (not active).
For `CC(=O)Nc1ccc(S(=O)(=O)N(C)CC(=O)OCC(=O)N2CCN(C(=O)c3ccco3)CC2)cc1`, the IC50 [4] was 9.38 µM (active).
In the case of `CCn1c(=O)c(NC(=O)c2ccccc2)c2n(c1=S)CCCCC2`, the IC50 [4] is reported as 8.47 µM (active).
With `CC(C)(O)CCCC(C)(O)c1ccc(C(=O)O)cc1O` (centres undefined) the IC50 [4] was 9.75 µM (active).
With `CC1CCN(C2CC(=O)N(c3ccc(Br)cc3Br)C2=O)CC1` (centres undefined) the AC50 [5] was < 0.195 µM (active).
In the case of `Cc1ccc(-c2cc3nc(-c4ccccc4)cc(NCCCO)n3n2)cc1`, the CC50 (Vero) is reported as > 25 µM (active).
With `CN(C)c1ccc(N/C=C/C(=O)c2ccc(F)cc2)cc1` the EC50 [6] was 2.32 µM (active), the EC50 [7] was 0.816 µM (active) and the EC50 [8] was 1.5 µM (active). For the same compound, the EC50 [9] was > 30 µM (not active).
In the case of `CCN(C(=O)CN1C(=O)COc2ccc(S(=O)(=O)N3CCCCCC3)cc21)c1cccc(C)c1`, the EC50 [1] is reported as 6.41 µM (active).
With `COc1ccc(OC)c(/N=C/c2c(O)oc3ccccc3c2=O)c1` the EC50 [2] was > 300 µM (inconclusive) and the EC50 [3] was > 300 µM (inconclusive).
In the case of `CCCc1ccc(C(=O)NNC(=O)c2ccc(Cl)cc2)cc1`, the IC50 [4] is reported as 9.67 µM (active).
For `O=C(CCN1C(=O)/C(=C/c2cccs2)SC1=S)NC1=NCCS1`, the AC50 [5] was 5.03 µM (active).
With `C[N+]1(C2CCC3CCCC2C3O)CCCC1` (centres undefined) the IC50 [4] was 6.98 µM (active).
With `COc1cc(-c2csc(C)n2)ccc1O` the AC50 [10] was 13.9 µM (active) and the IC50 (Large T antigen) was 4.9 µM (active).
In the case of `C[C@@H]1CCCCO[C@H](CN(C)C(=O)Nc2ccc(F)cc2)[C@@H](C)CN([C@@H](C)CO)C(=O)c2cc(NC(=O)Nc3ccc(C(F)(F)F)cc3)ccc2O1`, the AC50 (Paired box protein Pax-8) is reported as 2.58 µM (active).
In the case of `CN(O)C(=S)c1ccccc1`, the AC50 [5] is reported as 0.521 µM (active).
For `Cc1cc(C(F)(F)F)c2c(N)c(C(=O)Nc3cc(C)on3)sc2n1`, the EC50 [2] was > 300 µM (inconclusive) and the EC50 [3] was 39.2 µM (active).
In the case of `Oc1ccccc1-c1nc(NC2CCCC2)c2ccccc2n1`, the AC50 [5] is reported as 4.23 µM (active).
With `CN(C)c1ccc(N/C=C/C(=O)c2ccccc2)cc1` the EC50 [7] was 0.654 µM (active), the EC50 [8] was 0.93 µM (active) and the IC50 (Large T antigen) was 5.19 µM (active).
With `COc1ccc(NCC(O)Cn2cnc3c2c(=O)n(C)c(=O)n3C)cc1` (centres undefined) the IC50 (Large T antigen) was 17.7 µM (active).
With `COc1ccc(C2CC(=O)C(/C=N/CCCO)=C(O)C2)cc1` (centres undefined) the EC50 [2] was 34.8 µM (active) and the EC50 [3] was 37.9 µM (active).
With `C#CCN(C[C@H]1[C@H](OC(=O)Nc2c(C)noc2C)[C@H](OC(=O)Nc2c(C)noc2C)C[C@@H](C(=O)OC)[C@H]1C(=O)OC)S(=O)(=O)c1ccc(C)cc1` the AC50 (Paired box protein Pax-8) was 31.9 µM (active).
For `COc1cccc(-c2ccc(NC(=O)C3CCCN(Cc4cnn(C(C)C)c4)C3)cc2)c1` (centres undefined), the CC50 (Vero) was > 25 µM (active).
